How the values were obtained:
[1] = test system: eccrine sweat gland cells; assay: Short circuit current (Isc) in Ussing chamber, primary eccrine sweat gland cells; type: cell-based; settings: amiloride 10 μM apical
[2] = test system: proliferating apocrine cultures (ASG5); assay: Short circuit current (Isc) in Ussing chamber, proliferating apocrine cultures on Transwells; type: cell-based, human; settings: for ΔIsc (change of resting short circuit current) / Peak agonist Isc response after amiloride pre-treatment, Control / Peak agonist Isc response after amiloride pre-treatment, Chloride-free: proliferating apocrine; for ΔIsc (change of resting short circuit current): furosemide 1 mM basolateral; for Peak agonist Isc response, Control / Peak agonist Isc response, Chloride-free: proliferating (ASG5), Carbachol 20 μM; for Peak agonist Isc response, Control / Peak agonist Isc response after amiloride pre-treatment, Control: chloride-containing buffer; for Peak agonist Isc response, Control / Peak agonist Isc response, Chloride-free / Peak agonist Isc response after amiloride pre-treatment, Control / Peak agonist Isc response after amiloride pre-treatment, Chloride-free: Histamine 200 μM, ATP 100 μM; for Peak agonist Isc response after amiloride pre-treatment, Control / Peak agonist Isc response after amiloride pre-treatment, Chloride-free: Carbachol 200 μM, Isoprenaline ≧1 μM, LBK 170 nM
Procedure: (§1) After 13-18 days, confluent ASG5 cultures were passaged onto Transwell collagen-coated permeable supports (0.33 cm^2 area, Costar, cat. no. 3495, High Wycombe, Bucks, UK). This involved incubation in 2% EDTA for 20 minutes, followed by trypsin (0.5%)-EDTA (0.2%) for approximately five minutes. 3×10^5 cells were transferred onto each Transwell supplemented with WEM. The Transwell supports were suspended in 24-well plates in 0.6 ml of the same medium. For primary cultures, only first passage cells were used in experiments. The medium bathing cultures on Transwells was changed every two days.
(§2) Transepithelial resistance (TER) across epithelia on Transwells was monitored using ‘chopstick’ electrodes (WPI, Alresford, Hants, UK) connected to an ohmmeter. The TER was estimated by subtracting the measurement for a moistened filter blank. At peak TER, the Transwell supports were mounted in an Ussing Chamber. Epithelia were bathed in a modified Krebs buffer, oxygenated and maintained at 37° C., pH 7.4, with 95% O2/5% CO2. The buffer consisted of (mM): NaCl, 117; KCl, 4.7; CaCl2, 1.5; MgSO4, 1.2; NaHCO3, 25; and glucose, 11.1. Voltage and current electrodes (calomel and silver/silver chloride respectively, ABB Kent Taylor, Stonehouse, Glos, UK), connected to a voltage/current clamp were extended into the bath via bridges containing agar dissolved in 3 M potassium chloride.
(§3) Voltage electrodes were balanced in the absence of a Transwell and fluid resistance between the voltage electrodes was compensated for by the injection of an arbitrary DC current. After mounting a Transwell the epithelium was short-circuited, the current allowed to stabilise, typically for 15 minutes. Given the rarity of apocrine material, drugs were typically added in succession as disclosed by Brayden et al (1988) J. Physiol, 405: 657-675, Pedersen et al (1992) Exp. Physiol, 77; 863-871, and Shen et al, (1994) Am. J. Physiol, 266: L493-501 and changes in short circuit current (I^sc) recorded. The duration of experiments was typically 15-60 min. TER was estimated using Ohm's Law, routinely by clamping the voltage at ±10 mV and measuring the current required to achieve this. Unless otherwise stated all drugs listed in the legend were added to the basolateral side, except for amiloride that was added to the apical side. Amiloride is an inhibitor of the epithelial Na^+ channel (ENaC) and the Na^+/H^+ exchanger.
(§4) Chloride substitution experiments were carried out in Krebs buffer in which sodium gluconate was substituted for NaCl, potassium gluconate for KCl and CaSO4 for CaCl2. Glucose-free experiments were carried out with 11.1 mM mannitol as a replacement to maintain osmolality. Experiments in which barium was used as an inhibitor of potassium channels were carried out in the absence of sulphate ions, such that MgCl2 replaced MgSO4.

[3] = test system: primary apocrine cultures; assay: Short circuit current (Isc) in Ussing chamber, primary apocrine cultures on Transwells; type: cell-based, human; settings: for ΔIsc (change of resting short circuit current) / Peak agonist Isc response, Control / Peak agonist Isc response after amiloride pre-treatment, Control / Peak agonist Isc response, Chloride-free / Peak agonist Isc response after amiloride pre-treatment, Chloride-free: primary apocrine; for ΔIsc (change of resting short circuit current): amiloride 10 μM apical, furosemide 1 mM basolateral; for Peak agonist Isc response, Control / Peak agonist Isc response after amiloride pre-treatment, Control: chloride-containing buffer; for Peak agonist Isc response, Control / Peak agonist Isc response, Chloride-free: Carbachol 20 μM; for Peak agonist Isc response, Control / Peak agonist Isc response after amiloride pre-treatment, Control / Peak agonist Isc response, Chloride-free / Peak agonist Isc response after amiloride pre-treatment, Chloride-free: Histamine 200 μM, ATP 100 μM; for Peak agonist Isc response after amiloride pre-treatment, Control / Peak agonist Isc response after amiloride pre-treatment, Chloride-free: Carbachol 200 μM, Isoprenaline ≧1 μM, LBK 170 nM
Procedure: as §1, §2, §3, §4

[4] = test system: primary cultures of apocrine secretory coils; assay: TPA treatment of primary cultures of apocrine secretory coils in MEGM; type: cell-based, human; settings: TPA 250 nM in MEGM; 3-4 days after addition
Procedure: A proliferating apocrine cell line was derived from primary cultures of apocrine secretory coils. After 7 days culture in MEGM, the potent phorbol ester, TPA (phorbol-12-myristate-13 acetate; ex Calbiochem, Nottingham, UK) was included in the medium at a concentration of 250 nM. […] Commonly, the ester comprises at least aliphatic substituent particularly suitably at the 12 and/or 13 positions, such as a long chain alkyl (C7 to C24) and optionally also a short chain alkyl (C2 to C6).
However, the upper differentiated layers were removed by repeated washing to leave a proliferative monolayer of cells still attached to the flask. Cells of the proliferative layer were passaged into 96 well plates to generate clonal cell lines. Cells were maintained, passaged and continued to grow in MEGM containing TPA for approximately 2 months. After this period cells were cultured in MEGM alone and monitored for continued proliferation. Initially, many subclones continued to grow, but by the end of the next 10 passages, the majority had begun to senesce. One culture, in particular, ASG5, continued to grow and has now been maintained in culture, proliferating over more than 40 passages with no signs of a reduction in growth rate. […] This culture continues to proliferate in the absence of TPA, can survive cryopreservation and is considered to be stable.

Compound | Peak agonist Isc response, Control [2] | Peak agonist Isc response, Chloride-free ([2]; chloride-free buffer) | Peak agonist Isc response after amiloride pre-treatment, Control [2] | Peak agonist Isc response after amiloride pre-treatment, Chloride-free ([2]; chloride-free buffer) | Peak agonist Isc response, Control [3] | Peak agonist Isc response after amiloride pre-treatment, Control [3] | Peak agonist Isc response, Chloride-free ([3]; chloride-free buffer) | Peak agonist Isc response after amiloride pre-treatment, Chloride-free ([3]; chloride-free buffer) | further results
N=C(N)NC(=O)c1nc(Cl)c(N)nc1N [Amiloride] | – | – | – | – | – | – | – | – | ΔIsc (change of resting short circuit current) [1]: −7.1 ± 0.7 μA cm^−2; IC50 ([2]; Homo sapiens, apical amiloride, read-out: IC50 for amiloride (dose response curves, resting Isc)): 2 to 4 µM; carbachol stimulation of Isc after amiloride pre-treatment (FIG. 4A versus FIG. 3) ([2]; amiloride 10 μM apical, CCh 20 μM): reduced; effect of amiloride pre-treatment on peak Isc responses to CCh, His and ATP (FIG. 2) ([2]; amiloride 10 μM apical, CCh 20 μM, His 200 μM, ATP 100 μM basolateral): significantly reduced; reduction of basal Isc under chloride-free conditions ([2]; amiloride 10 μM, chloride-free buffer, proliferating cultures): 2.5 μA cm^−2; reduction of resting Isc ([2]; apically applied amiloride 10 μM, n=20, P<0.001): 4.5±1.0 μA cm^−2; ΔIsc (change of resting short circuit current) ([2]; amiloride 10 μM apical): −4.2 ± 1.0 μA cm^−2; reduction of basal Isc under chloride-free conditions ([3]; amiloride 10 μM, chloride-free buffer, primary cultures): 3.6 μA cm^−2; ΔIsc (change of resting short circuit current) [3]: −6.0 ± 0.9 μA cm^−2
C[N+](C)(C)CCOC(N)=O [Carbachol] | 4.0 ± 0.7 μA cm^−2 | 3.0 ± 0.8 μA cm^−2 | 2.4 ± 0.6 μA cm^−2 | 1.3 ± 0.3 μA cm^−2 | 3.9 ± 0.7 μA cm^−2 | 6.3 ± 1.4 μA cm^−2 | 0.7 ± 0.6 μA cm^−2 | 1.7 ± 1.2 μA cm^−2 | –
Nc1ncnc2c1ncn2[C@@H]1O[C@H](COP(=O)(O)OP(=O)(O)OP(=O)(O)O)[C@@H](O)[C@H]1O [ATP, Adenosine triphosphate] | 6.3 ± 1.8 μA cm^−2 | 4.0 ± 0.5 μA cm^−2 | 1.8 ± 0.3 μA cm^−2 | 0.8 ± 0.2 μA cm^−2 | 7.4 ± 1.8 μA cm^−2 | 4.9 ± 0.7 μA cm^−2 | 2.9 ± 0.9 μA cm^−2 | 4.3 ± 2.4 μA cm^−2 | –
CC(C)NCC(O)c1ccc(O)c(O)c1 (stereo not shown) [Isoprenaline] | – | – | 1.8 ± 0.4 μA cm^−2 | 0.8 ± 0.2 μA cm^−2 | – | 1.8 ± 0.4 μA cm^−2 | – | 0.7 ± 0.3 μA cm^−2 | –
NS(=O)(=O)c1cc(C(=O)O)c(NCc2ccco2)cc1Cl [Furosemide] | – | – | – | – | – | – | – | – | Inhibition by furosemide of agonist response, ΔIsc ([2]; 90 µM): −1.2 ± 0.3 μA cm^−2; Inhibition by furosemide of agonist response, ΔIsc ([2]; furosemide 90 μM, agonist ATP 100 μM, proliferating): −1.2 ± 0.3 μA cm^−2; Inhibition by furosemide of agonist response, ΔIsc ([2]; furosemide 90 μM, agonist Carbachol ≧20 μM, proliferating): −1.1 ± 0.4 μA cm^−2; Inhibition by furosemide of agonist response, ΔIsc ([2]; furosemide 90 μM, agonist Histamine 200 μM, proliferating): −1.0 ± 0.4 μA cm^−2; magnitude of Isc response to carbachol after furosemide pre-treatment (FIG. 4B versus FIG. 3) ([2]; furosemide 1 mM pre-treatment, CCh 20 μM): reduces the magnitude of response; ΔIsc (change of resting short circuit current) ([2]; amiloride 10 μM apical): −0.8 ± 0.3 μA cm^−2; agonist Isc responses on addition of furosemide after agonist stimulation ([2]; transformed apocrine cultures): rapid reduction in responses; Inhibition by furosemide of agonist response, ΔIsc ([3]; 90 µM): 0.8 ± 0.2 μA cm^−2; Inhibition by furosemide of agonist response, ΔIsc ([3]; furosemide 90 μM, agonist ATP 100 μM, primary): −2.6 ± 0.5 μA cm^−2; Inhibition by furosemide of agonist response, ΔIsc ([3]; furosemide 90 μM, agonist Carbachol ≧20 μM, primary): −2.0 ± 0.5 μA cm^−2; Inhibition by furosemide of agonist response, ΔIsc ([3]; furosemide 90 μM, agonist Histamine 200 μM, primary): −1.3 ± 0.2 μA cm^−2; agonist Isc responses on addition of furosemide after agonist stimulation ([3]; primary apocrine cultures): rapid reduction in responses; ΔIsc (change of resting short circuit current) [3]: −0.5 ± 0.2 μA cm^−2
CCCCCCCCCCCCCC(=O)O[C@@H]1[C@@H](C)[C@@]2(O)[C@@H](C=C(CO)C[C@]3(O)C(=O)C(C)=C[C@@H]23)[C@@H]2C(C)(C)[C@]12OC(C)=O [TPA, phorbol-12-myristate-13 acetate] | – | – | – | – | – | – | – | – | effect on culture morphology (multilayering) [4]: induced premature multilayering
NCCc1c[nH]cn1 [Histamine] | 4.8 ± 1.3 μA cm^−2 | 3.3 ± 0.8 μA cm^−2 | 1.9 ± 0.4 μA cm^−2 | 1.0 ± 0.2 μA cm^−2 | 6.4 ± 1.3 μA cm^−2 | 4.2 ± 0.5 μA cm^−2 | 1.7 ± 0.5 μA cm^−2 | 2.4 ± 1.4 μA cm^−2 | –
L-bradykinin (RPPGFSPFR; Bradykinin; UniProt P01042 381-389, looked up) [LBK, agonist added basolaterally] | – | – | 1.6 ± 0.3 μA cm^−2 | 0.9 ± 0.3 μA cm^−2 | – | 2.0 ± 0.5 μA cm^−2 | – | 0.6 ± 0.4 μA cm^−2 | –

Reference: US20100184213A1, “APOCRINE CELL LINE” (priority 2007, published 2010)
